Test results taken from patent US11028075B2, “Therapeutic compounds and methods of use thereof” (GENENTECH, INC., priority 2018, dated 2021).
Counter-ions that a name gives are not always drawn.

What was measured:
hNav1.7 [1] = biological target: T1, hNav1.7 (Homo sapiens (Human), UniProt Q15858); experiment: Tritiated compound binding to membranes from cells heterologously expressing hNav1.7 and the β1 subunit (Nav1.7 LBA); conditions: competitive binding vs [3H]compound, membranes with hNav1.7 and β1 subunit; read-out: Nav1.7 LBA EVO IC50
Procedure: Example 93A. Tritiated Compound Binding to Membranes Isolated from Cells that Heterologously Express hNav1.7 and the β1 Subunit
Preparation of membranes containing recombinantly expressed sodium channels: Frozen recombinant cell pellets are thawed on ice and diluted to 4 times the cell pellet weight with ice cold 50 mM Tris HCl, pH 7.4 buffer. The cell suspensions are homogenized on ice using a motorized glass dounce homogeniser. Homogenates are further diluted 8.4 times with ice cold 50 mM Tris HCl, pH 7.4 buffer and then centrifuged at 200×g at 4° C. for 15 minutes. The supernatants are collected and centrifuged at 10000×g at 4° C. for 50 min. The pellets are then re-suspended in 100 mM NaCl, 20 mM Tris HCl, pH 7.4 buffer containing 1% v/v protease inhibitors (Calbiochem) and re-homogenized on ice. The homogenized membranes are then processed through a syringe equipped with a 26 gauge needle. Protein concentrations arer determined by Bradford Assay and the membranes are stored at −80° C.
Saturation experiments. A competitive NaV1.7 inhibitor having a methyl group is tritiated. Three tritiums are incorporated in place of methyl hydrogens to generate [^3H]compound. Binding of this radioligand is performed in 5 mL borosilicate glass test tubes at room temperature. Binding is initiated by adding membranes to increasing concentrations of [^3H]compound in 100 mM NaCl, 20 mM Tris HCl, pH 7.4 buffer containing 0.01% w/v bovine serum albumin (BSA) for 18 h. Non-specific binding is determined in the presence of 1 μM unlabeled compound. After 18 h, the reactants are filtered through GF/C glass fiber filters presoaked in 0.5% w/v polyethylene imine. Filters are washed with 15 mL ice cold 100 mM NaCl, 20 mM Tris HCl, pH7.4 buffer containing 0.25% BSA to separate bound from free ligand. [^3H]compound bound to filters is quantified by liquid scintillation counting.
Binding reactions are performed in 96-well polypropylene plates at room temperature for 18 h. In 360 μL, membranes are incubated with […] [^3H]compound and increasing concentrations of Test Compound. Non-specific binding is defined in the presence of 1 μM unlabeled compound. Reactions are transferred and filtered through 96-well glass fiber/C filter plates presoaked with 0.5% polyethylene imine. The filtered reactions are washed 5 times with 200 μL ice cold buffer containing 0.25% BSA. Bound radioactivity is determined by liquid scintillation counting.
Data Analysis: For saturation experiments, non-specific binding is subtracted from total binding to provide specific binding and these values are recalculated in terms of pmol ligand bound per mg protein. Saturation curves are constructed and dissociation constants are calculated using the single site ligand binding model: Beq=(Bmax*X)/(X+Kd), where Beq is the amount of ligand bound at equilibrium, Bmax is the maximum receptor density, Kd is the dissociation constant for the ligand, and X is the free ligand concentration. For competition studies percent inhibition is determined and IC50 values are calculated using a 4 parameter logistic model (% inhibition=(A+((B−A)/(1+((x/C)^D)))) using XLfit, where A and B are the maximal and minimum inhibition respectively, C is the IC50 concentration and D is the (Hill) slope.
Example 93B. Tritiated Compound Binding to Membranes Isolated from Cells that Heterologous Express hNav1.7 and the β1 Subunit
Following the procedure described in Example 93A, and making modifications as required to: centrifuge supernatants at 100000×g instead of 10000×g; re-suspend pellets in a buffer containing 0.01% BSA in addition to 100 mM NaCl, 20 mM Tris HCl, pH 7.4 buffer, and 1% v/v proteasome inhibitors; and storing membranes at −80° C. in single use aliquots instead of pooled. […]
Target sequence in this assay (Q15858 whole entry, looked up): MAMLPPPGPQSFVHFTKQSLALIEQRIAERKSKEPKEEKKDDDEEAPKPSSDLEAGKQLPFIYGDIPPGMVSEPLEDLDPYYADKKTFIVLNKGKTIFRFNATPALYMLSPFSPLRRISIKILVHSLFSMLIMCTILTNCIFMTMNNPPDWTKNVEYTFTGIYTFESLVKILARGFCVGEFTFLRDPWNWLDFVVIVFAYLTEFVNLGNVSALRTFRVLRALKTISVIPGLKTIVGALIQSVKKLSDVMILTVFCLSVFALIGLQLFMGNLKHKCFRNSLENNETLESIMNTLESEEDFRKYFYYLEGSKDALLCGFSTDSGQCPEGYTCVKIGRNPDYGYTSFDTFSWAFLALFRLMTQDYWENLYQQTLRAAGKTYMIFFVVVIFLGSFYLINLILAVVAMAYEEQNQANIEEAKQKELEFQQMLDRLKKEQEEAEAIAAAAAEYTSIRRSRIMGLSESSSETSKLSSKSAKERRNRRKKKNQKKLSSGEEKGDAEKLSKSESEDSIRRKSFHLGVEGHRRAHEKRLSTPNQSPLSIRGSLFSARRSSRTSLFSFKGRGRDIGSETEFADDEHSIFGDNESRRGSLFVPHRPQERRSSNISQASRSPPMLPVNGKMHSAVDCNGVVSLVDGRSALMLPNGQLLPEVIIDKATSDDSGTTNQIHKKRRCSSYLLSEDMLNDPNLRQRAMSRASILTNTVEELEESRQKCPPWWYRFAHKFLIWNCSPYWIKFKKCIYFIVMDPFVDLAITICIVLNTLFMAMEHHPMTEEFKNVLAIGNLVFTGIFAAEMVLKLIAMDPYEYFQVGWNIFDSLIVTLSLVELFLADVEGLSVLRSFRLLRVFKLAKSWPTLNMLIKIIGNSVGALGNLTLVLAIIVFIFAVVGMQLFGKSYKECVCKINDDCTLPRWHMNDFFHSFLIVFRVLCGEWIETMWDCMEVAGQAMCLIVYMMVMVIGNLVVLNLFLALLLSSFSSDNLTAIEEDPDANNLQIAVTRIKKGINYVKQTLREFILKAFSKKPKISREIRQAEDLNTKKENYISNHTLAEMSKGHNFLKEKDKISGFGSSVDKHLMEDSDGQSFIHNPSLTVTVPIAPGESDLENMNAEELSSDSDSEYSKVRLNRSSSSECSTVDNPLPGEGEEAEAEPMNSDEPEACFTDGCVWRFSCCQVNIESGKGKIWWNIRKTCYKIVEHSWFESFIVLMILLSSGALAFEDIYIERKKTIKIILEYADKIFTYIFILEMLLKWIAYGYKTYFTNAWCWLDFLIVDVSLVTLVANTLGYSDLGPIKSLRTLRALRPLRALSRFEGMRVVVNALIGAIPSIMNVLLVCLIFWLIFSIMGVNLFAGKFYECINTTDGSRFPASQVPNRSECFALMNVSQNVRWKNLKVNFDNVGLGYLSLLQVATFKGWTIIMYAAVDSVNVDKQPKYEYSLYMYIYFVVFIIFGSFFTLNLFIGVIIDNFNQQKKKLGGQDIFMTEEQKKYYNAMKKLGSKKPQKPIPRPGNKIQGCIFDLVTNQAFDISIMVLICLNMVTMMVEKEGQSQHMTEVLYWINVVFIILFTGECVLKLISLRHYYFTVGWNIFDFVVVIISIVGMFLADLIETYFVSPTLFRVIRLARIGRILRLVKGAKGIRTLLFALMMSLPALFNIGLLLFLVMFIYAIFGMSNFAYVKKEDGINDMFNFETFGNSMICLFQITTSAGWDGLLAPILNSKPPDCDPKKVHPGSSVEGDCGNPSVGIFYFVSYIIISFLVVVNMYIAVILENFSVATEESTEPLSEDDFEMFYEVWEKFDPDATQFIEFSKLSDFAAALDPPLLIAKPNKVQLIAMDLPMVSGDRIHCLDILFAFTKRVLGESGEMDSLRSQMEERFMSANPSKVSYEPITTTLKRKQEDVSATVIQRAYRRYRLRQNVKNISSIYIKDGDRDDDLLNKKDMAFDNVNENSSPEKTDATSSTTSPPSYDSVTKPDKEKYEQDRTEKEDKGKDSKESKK
Target sequence in this assay (Q07699 whole entry partner, looked up): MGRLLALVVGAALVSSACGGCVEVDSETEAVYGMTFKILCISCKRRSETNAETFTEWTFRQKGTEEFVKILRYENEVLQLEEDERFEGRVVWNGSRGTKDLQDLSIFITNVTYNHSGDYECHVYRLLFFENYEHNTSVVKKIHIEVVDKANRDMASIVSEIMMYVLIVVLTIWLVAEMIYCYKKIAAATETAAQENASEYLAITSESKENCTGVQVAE

hNav1.7 [2] = biological target: T1, hNav1.7; experiment: Electrophysiological assay (EP), voltage clamp on Syncropatch 384PE, CHO cells stably expressing Nav1.7; type: cell-based; conditions: holding potential −50 mV, 7.5 min compound incubation, read-out: EP_SP hNav1.7 EVO IC50
Source text: Example 93C. Electrophysiological Assay (EP) (In Vitro Assay)
Patch voltage clamp electrophysiology allows for the direct measurement and quantification of block of voltage-gated sodium channels (NaV's), and allows the determination of the time- and voltage-dependence of block which has been interpreted as differential binding to the resting, open, and inactivated states of the sodium channel (Hille, B., Journal of General Physiology (1977), 69: 497-515).
The following voltage clamp electrophysiology studies are performed on representative compounds using cells heterologously expressing Nav1.7 or Nav1.5 channels. cDNAsfor Nav1.7 (NM_002977) and Nav1.5 (AC137587) are stably expressed in Chinese Hamstr Ovary (CHO) cells and CHL (Chinese Hamster Lung) cells respectively. Sodium currents are measured in the whole-cell configuration using Syncropatch 384PE (Nanlon Technologies, Germany). 1NPC®-384 chips with custom medium resistance and single hole mode are used. Internal solution consists of (in mM): […], 10 […], 20 EGTA, and 10 Hepes (pH adjusted to 7.2); and external solution contains (in mM): 60 NMDG, 80 NaCl, 4 KCl, 1 MgCl2, 2 CaCl2, 2 D-Glucose monohydrate, 10 Hepes (pH adjusted to 7.4 with NaOH).
After system flushing, testing compounds are dissolved in external solution containing 0.1% Pluronic F-127. The chip is moved into the measuring head and the instrument primes the chip with external and internal solutions. 10 μl cells are added to the chip from a cell hotel, and a negative pressure of −50 mBar is applied to form a seal. Following treatment with seal enhancer solution and wash-off with external solution, negative pressure of −250 mbar is applied for 1 second to achieve the whole-cell configuration, followed by three washing steps in external solution. 20 μl of compounds is added to 40 μl in each well (1:3 dilution of compounds), and after mixing, 20 μl is removed so the volume is retained at 40 μl. After approximately 13 minutes recordings, 20 μl/well of 2 uM TTX, or 333 uM Tetracaine (for Nav1.5) is added to achieve full block.
For voltage protocol, an holding potential of −50 mV is applied during the whole experiment. A depolarizing step is applied to −10 mV for 10 ms, followed by a hyperpolarization step to −150 mV for 20 ms to allow channel recovery from inactivation. A second depolarizing step is applied from −150 mV to −10 mV for 10 ms, where currents are measured to derive blocking effects of compounds. Inhibition is determined based on 7.5 min of compound incubation.
Target sequence in this assay (Q15858 other isoform, or with tags, fused parts or gaps): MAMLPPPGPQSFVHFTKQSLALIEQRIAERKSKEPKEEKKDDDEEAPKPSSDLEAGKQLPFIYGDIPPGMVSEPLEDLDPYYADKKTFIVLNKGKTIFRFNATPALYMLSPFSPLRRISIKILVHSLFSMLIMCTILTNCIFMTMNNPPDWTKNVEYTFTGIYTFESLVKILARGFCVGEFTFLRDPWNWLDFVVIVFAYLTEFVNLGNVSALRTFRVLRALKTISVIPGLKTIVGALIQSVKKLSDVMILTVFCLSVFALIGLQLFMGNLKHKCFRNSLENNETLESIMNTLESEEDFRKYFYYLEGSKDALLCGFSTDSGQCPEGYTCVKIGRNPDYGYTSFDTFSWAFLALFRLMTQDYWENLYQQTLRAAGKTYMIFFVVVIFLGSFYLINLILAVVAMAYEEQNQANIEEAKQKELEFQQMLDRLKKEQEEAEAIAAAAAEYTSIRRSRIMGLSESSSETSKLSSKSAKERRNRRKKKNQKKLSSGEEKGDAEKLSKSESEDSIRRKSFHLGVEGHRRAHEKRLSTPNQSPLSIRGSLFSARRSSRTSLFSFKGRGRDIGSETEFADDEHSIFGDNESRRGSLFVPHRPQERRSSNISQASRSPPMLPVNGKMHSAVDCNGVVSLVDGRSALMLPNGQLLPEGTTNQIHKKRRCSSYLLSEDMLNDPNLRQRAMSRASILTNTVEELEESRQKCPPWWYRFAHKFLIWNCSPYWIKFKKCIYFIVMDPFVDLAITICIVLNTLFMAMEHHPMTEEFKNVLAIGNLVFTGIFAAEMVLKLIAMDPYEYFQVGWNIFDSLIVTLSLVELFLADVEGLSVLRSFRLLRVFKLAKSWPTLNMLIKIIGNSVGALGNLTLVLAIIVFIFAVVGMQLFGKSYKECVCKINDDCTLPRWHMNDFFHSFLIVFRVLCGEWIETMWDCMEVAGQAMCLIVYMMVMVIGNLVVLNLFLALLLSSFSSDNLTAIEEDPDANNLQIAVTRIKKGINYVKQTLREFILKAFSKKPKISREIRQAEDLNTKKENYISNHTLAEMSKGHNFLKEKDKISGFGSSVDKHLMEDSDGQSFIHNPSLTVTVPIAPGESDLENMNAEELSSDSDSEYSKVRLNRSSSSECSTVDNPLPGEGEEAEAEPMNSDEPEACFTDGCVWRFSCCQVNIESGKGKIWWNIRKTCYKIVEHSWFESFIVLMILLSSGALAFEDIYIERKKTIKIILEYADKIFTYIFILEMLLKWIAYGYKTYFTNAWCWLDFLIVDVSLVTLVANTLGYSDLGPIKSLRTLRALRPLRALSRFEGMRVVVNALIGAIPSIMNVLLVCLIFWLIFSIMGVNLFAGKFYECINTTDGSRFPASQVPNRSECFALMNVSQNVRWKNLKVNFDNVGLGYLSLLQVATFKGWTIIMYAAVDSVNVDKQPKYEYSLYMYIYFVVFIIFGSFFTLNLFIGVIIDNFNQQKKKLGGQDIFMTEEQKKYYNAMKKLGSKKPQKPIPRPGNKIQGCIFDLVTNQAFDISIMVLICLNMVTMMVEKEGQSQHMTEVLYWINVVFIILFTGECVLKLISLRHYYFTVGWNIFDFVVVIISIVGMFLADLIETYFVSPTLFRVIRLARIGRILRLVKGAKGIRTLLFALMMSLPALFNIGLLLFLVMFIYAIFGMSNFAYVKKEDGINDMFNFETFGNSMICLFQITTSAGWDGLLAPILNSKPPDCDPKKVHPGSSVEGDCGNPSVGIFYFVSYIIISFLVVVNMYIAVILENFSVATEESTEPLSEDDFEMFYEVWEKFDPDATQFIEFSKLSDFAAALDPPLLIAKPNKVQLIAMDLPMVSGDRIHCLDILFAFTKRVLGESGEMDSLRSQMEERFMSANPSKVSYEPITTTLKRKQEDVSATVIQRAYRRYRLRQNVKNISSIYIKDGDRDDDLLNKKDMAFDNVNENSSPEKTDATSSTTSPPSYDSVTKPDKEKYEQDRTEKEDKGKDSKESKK

IC50 (hNav1.7 [1]) | IC50 (hNav1.7 [2]) | SMILES
1.21 nM | 1.63 nM | O=S(=O)(Nc1ccncn1)c1cc(F)c(N[C@H]2CC[C@H](c3cccc(C(F)(F)F)c3)C[C@@H]2N2CCCC2)cc1F [Example 23, 2,5-difluoro-N-(pyrimidin-4-yl)-4-(((1S,2S,4S)-2-(pyrrolidin-1-yl)-4-(3-(trifluoromethyl)-phenyl)cyclohexyl)amino)benzenesulfonamide formate]
0.583 nM | 0.383 nM | CN(C)[C@H]1C[C@@H](c2cc(Cl)cc(C(F)(F)F)c2)CC[C@@H]1Nc1cc(F)c(S(=O)(=O)Nc2ccncn2)cc1Cl [Example 24, 5-chloro-4-(((1S,2S,4S)-4-(3-chloro-5-(trifluoromethyl)phenyl)-2-(dimethylamino)cyclohexyl)-amino)-2-fluoro-N-(pyrimidin-4-yl)benzenesulfonamide]
3.02 nM | 2.31 nM | CN(C)[C@H]1C[C@@H](c2cc(F)cc(Cl)c2)CC[C@@H]1Nc1cc(F)c(S(=O)(=O)Nc2ccncn2)cc1Cl [Example 25, 5-chloro-4-(((1S,2S,4S)-4-(3-chloro-5-fluorophenyl)-2-(dimethylamino)cyclohexyl)amino)-2-fluoro-N-(pyrimidin-4-yl)benzenesulfonamide]
11.8 nM | 2.97 nM | CN(C)[C@H]1C[C@@H](c2cccc(F)c2)CC[C@@H]1Nc1cc(F)c(S(=O)(=O)Nc2ccncn2)cc1Cl [Example 26, 5-Chloro-4-(((1S,2S,4S)-2-(dimethylamino)-4-(3-fluorophenyl)cyclohexyl)amino)-2-fluoro-N-(pyrimidin-4-yl)benzenesulfonamide formate]
1.22 nM | 1.33 nM | CN(C)[C@H]1C[C@@H](c2cccc(CC(F)(F)F)c2)CC[C@@H]1Nc1cc(F)c(S(=O)(=O)Nc2ccncn2)cc1Cl [Example 27, 5-chloro-4-(((1S,2S,4S)-2-(dimethylamino)-4-(3-(2,2,2-trifluoroethyl)phenyl)cyclohexyl)-amino)-2-fluoro-N-(pyrimidin-4-yl)benzenesulfonamide]
84 nM | 36.3 nM | CN(C)CC(=O)N[C@H]1C[C@@H](c2cccc(C(F)(F)F)c2)CC[C@@H]1Nc1cc(F)c(S(=O)(=O)Nc2ccncn2)cc1Cl [Example 28, N-((1S,2S,5S)-2-((2-chloro-5-fluoro-4-(N-(pyrimidin-4-yl)sulfamoyl)phenyl)amino)-5-(3-(trifluoromethyl)phenyl)cyclohexyl)-2-(dimethylamino)acetamide]
3.56 nM | 2.25 nM | CN(C)CC(=O)N(C)[C@H]1C[C@@H](c2cccc(C(F)(F)F)c2)CC[C@@H]1Nc1cc(F)c(S(=O)(=O)Nc2ccncn2)cc1Cl [Example 29, N-((1S,2S,5S)-2-((2-chloro-5-fluoro-4-(N-(pyrimidin-4-yl)sulfamoyl)phenyl)amino)-5-(3-(trifluoromethyl)phenyl)cyclohexyl)-2-(dimethylamino)-N-methylacetamide formate]
37.5 nM | 28.4 nM | CC(C)[C@H](N)C(=O)N[C@H]1C[C@@H](c2cccc(C(F)(F)F)c2)CC[C@@H]1Nc1cc(F)c(S(=O)(=O)Nc2ccncn2)cc1Cl [Example 30, (S)-2-Amino-N-((1S,2S,5S)-2-((2-chloro-5-fluoro-4-(N-(pyrimidin-4-yl)sulfamoyl)-phenyl)amino)-5-(3-(trifluoromethyl)phenyl)cyclohexyl)-3-methylbutanamide formate]
2.78 nM | 0.462 nM | CC(C)[C@H](N)C(=O)N(C)[C@H]1C[C@@H](c2cccc(C(F)(F)F)c2)CC[C@@H]1Nc1cc(F)c(S(=O)(=O)Nc2ccncn2)cc1Cl [Example 31, (S)-2-amino-N-((1S,2S,5S)-2-((2-chloro-5-fluoro-4-(N-(pyrimidin-4-yl)sulfamoyl)-phenyl)amino)-5-(3-(trifluoromethyl)phenyl)cyclohexyl)-N,3-dimethylbutanamide formate]
2.04 nM | 1.6 nM | CN(C)[C@H]1C[C@@H](c2cccc(C(C)(F)F)c2)CC[C@@H]1Nc1cc(F)c(S(=O)(=O)Nc2ccncn2)cc1Cl [Example 32, 5-chloro-4-(((1S,2S,4S)-4-(3-(1,1-difluoroethyl)phenyl)-2-(dimethylamino)-cyclohexyl)-amino)-2-fluoro-N-(pyrimidin-4-yl)benzenesulfonamide]
2.45 nM | 0.629 nM | CN1CC[C@H](C(=O)N(C)[C@H]2C[C@@H](c3cccc(C(F)(F)F)c3)CC[C@@H]2Nc2cc(F)c(S(=O)(=O)Nc3ccncn3)cc2Cl)C1 [Example 33, (S)—N-((1S,2S,5S)-2-((2-chloro-5-fluoro-4-(N-(pyrimidin-4-yl)sulfamoyl)phenyl)amino)-5-(3-(trifluoromethyl)phenyl)cyclohexyl)-N,1-dimethylpyrrolidine-3-carboxamide]
2.6 nM | 0.672 nM | CN1CC[C@@H](C(=O)N(C)[C@H]2C[C@@H](c3cccc(C(F)(F)F)c3)CC[C@@H]2Nc2cc(F)c(S(=O)(=O)Nc3ccncn3)cc2Cl)C1 [Example 34, (R)—N-((1S,2S,5S)-2-((2-Chloro-5-fluoro-4-(N-(pyrimidin-4-yl)sulfamoyl)phenyl)amino)-5-(3-(trifluoromethyl)phenyl)cyclohexyl)-N,1-dimethylpyrrolidine-3-carboxamide]
3.95 nM | 1.92 nM | CN(C)[C@H]1C[C@@](O)(c2cccc(C(F)(F)F)c2)CC[C@@H]1Nc1cc(F)c(S(=O)(=O)Nc2ccncn2)cc1Cl [Example 35, 5-chloro-4-(((1S,2S,4R)-2-(dimethylamino)-4-hydroxy-4-(3-(trifluoromethyl)phenyl)-cyclohexyl)amino)-2-fluoro-N-(pyrimidin-4-yl)benzenesulfonamide formate]
